The test system of one assay is mPGES-1. The assay is described as follows: mPGES-1 protein expression in LPS-activated rat peritoneal macrophages (western blotting). The note with it: SIN or DEX 1 h, LPS 24 h. It counts as cell-based. Here is the method: (§1) Sprague-Dawley (SD) rats from the University of Hong Kong were housed in cages with free access to food and water. Peritoneal macrophages of SD rats were isolated as described in Liu J. et al., Pharmacological research 2016, 111:303-315. Briefly, untreated rats were sacrificed and after laparotomy, about 50 ml cold sterile Hank's balanced salt solution (HBSS) was used to lavage the peritoneal cavity at twice, and then the peritoneal lavage fluid was collected and centrifuged at 1500 rpm for 10 min. The cell pellets was suspended at a density 1.5×10^6 cells/ml in pre-hearted DMEM medium with 10% heat-inactivated FBS, penicillin G (100 units/ml), streptomycin ([…]), and L-glutamine (2 mM), followed by seeding in 6-well plates at a density of 4.5×10^6 cells and incubation for 2 h. Then the medium were discarded to remove the non-adherent cells. The adherent cells were further washed for two times with pre-heated DMEM medium to remove floating cells. Next, cells were pre-treated with various concentration of SIN for 1 h, followed by stimulation with LPS (1 μg/ml).
(§2) Whole-cell and nuclear proteins were obtained using RIPA lysis buffer (CST, Boston, Mass., USA) and Nuclear and Cytoplasmic Extraction Reagents kit from Thermo Scientific (Asheville, N.C., USA), respectively. […] The levels of protein expression were measured using Odyssey v3.0 software from Li-COR (Lincoln, Nebr., USA).

A further assay deals with p-cPLA2. The assay is described as follows: p-cPLA2 protein expression in LPS-activated rat peritoneal macrophages (western blotting). The note with it: SIN or DEX 1 h, LPS 24 h. It counts as cell-based. On the procedure: as §1, §2
The subject of the next assay is COX-1. The assay is described as follows: COX-1 protein expression in IL-1β-stimulated A549 cells (western blotting). Type of assay: cell-based. The note with it: IL-1β with SIN or DEX for 48 h. Here is the method: (§3) RAW264.7 and A549 cell lines were obtained from American Type Culture Collection (ATCC, Manassas, Va., USA) and maintained in DMEM (RAW264.7) or 1640 (A549) medium containing 10% FBS (Gibco-BRL, Grand Island, N.Y., USA) and antibiotics at 37° C. in a humidified atmosphere containing 5% CO2. RAW264.7 cells were plated in 6-well plates at a density of 4×10^5 cells and incubated for 24 h, then the cells were pretreated with different concentrations of SIN for 1 h before stimulating with LPS (100 ng/ml). A549 cells were seeded in 6-well plates at a density of 1×10^5 cells and incubated for 24 h, followed by pretreatment with SIN. A549 cells were then stimulated by IL-1β (1 ng/ml).
Whole-cell and nuclear proteins were obtained using RIPA lysis buffer (CST, Boston, Mass., USA) and Nuclear and Cytoplasmic Extraction Reagents kit from Thermo Scientific (Asheville, N.C., USA), respectively. For immunoblotting, proteins from whole-cell, cytoplasm, nuclear, and microsomal fractions were separated on SDS-PAGE, then transferred onto a nitrocellulose membrane from GE Healthcare Life Sciences (Buckinghamshire, UK), and incubated with 5% skimmed milk at room temperature for 1 h. […] The levels of protein expression were measured using Odyssey v3.0 software from Li-COR (Lincoln, Nebr., USA).

For another assay, the system named is PGD2. The assay is described as follows: PGD2 level in culture supernatants of LPS-activated rat peritoneal macrophages (ELISA). Particulars: LPS-stimulated rat peritoneal macrophages, culture supernatant. Type of assay: cell-based. On the procedure:
as §1
(§4) RAW264.7 cells and rat peritoneal macrophages were seeded in a 96-well plate at density of 1.4×10^4 and 1.5×10^5 cells, respectively. […] The optical density was measured at 570 nm against a reference wavelength of 650 nm using a microplate UV/VIS spectrophotometer (Tecan, Mannedorf, Switzerland). […]
For orientation: In an ELISA, binding on a coated surface is turned into a signal by an enzyme label.

The subject of a further assay is p65. The assay is described as follows: Nuclear translocation of p65 in LPS-stimulated rat peritoneal macrophages (immunofluorescence, western blotting). It counts as cell-based. The note with it: 640 μM SIN 1 h, LPS 30 min. On the procedure:
Whole-cell and nuclear proteins were obtained using RIPA lysis buffer (CST, Boston, Mass., USA) and Nuclear and Cytoplasmic Extraction Reagents kit from Thermo Scientific (Asheville, N.C., USA), respectively. For immunoblotting, proteins from whole-cell, cytoplasm, nuclear, and microsomal fractions were separated on SDS-PAGE, then transferred onto a nitrocellulose membrane from GE Healthcare Life Sciences (Buckinghamshire, UK), and incubated with 5% skimmed milk at room temperature for 1 h. Membranes were incubated with the primary antibodies including cPLA2, p-cPLA2, COX-1 and p65 (all dilutions 1:1000), and COX-2 (dilution 1:500) from Cell Signaling Technology (Boston, Mass., USA); and mPGES-1 (dilution 1:200) from Cayman Chemical (Ann Arbor, Mich., USA); and β-actin (dilution 1:1000) from Santa Cruz Biotechnology (Santa Cruz, Calif., USA); and TBP (dilution 1:200) was from Abcam (Cambridge, UK) at 4° C. overnight and the band was visualized by incubating the anti-rabbit or anti-mouse secondary antibodies (dilution 1:10,000) from Li-COR (Lincoln, Nebr., USA) at room temperature for 1 h. The levels of protein expression were measured using Odyssey v3.0 software from Li-COR (Lincoln, Nebr., USA).
RAW 264.7 cells were seeded on glass coverslip at a density 2.0×10^5 cells/well in 6-well plates and incubated for 24 h. […]
On the technique in general: Immunoblotting shows a protein as a band on a membrane.

Assay [1] relates to NO. The assay is described as follows: NO production in LPS-stimulated rat peritoneal macrophages (Griess reagent). It counts as cell-based. Particulars: pretreatment 1 h, LPS 1 μg/ml 24 h. Here is the method: as §1, §4
For assay [2], the system named is NO. The assay is described as follows: NO production in LPS-stimulated RAW264.7 cells (Griess reagent). Type of assay: cell-based, mouse. Particulars: pretreatment 1 h, LPS 100 ng/ml 18 h. On the procedure:
as §3
RAW264.7 cells and rat peritoneal macrophages were seeded in a 96-well plate at density of 1.4×10^4 and 1.5×10^5 cells, respectively. Various concentration of SIN was added to the cells for 1 hour before LPS stimulation. After stimulation with LPS for 18 h (RAW264.7 cells) or 24 h (rat peritoneal macrophages), MTT solution was added to each well and incubated for another 4 hours. 100 μl 10% SDS-HCl solution was added to each well for overnight to dissolve the formazan dye. The optical density was measured at 570 nm against a reference wavelength of 650 nm using a microplate UV/VIS spectrophotometer (Tecan, Mannedorf, Switzerland). […]

For a further assay, the system named is IL-6. The assay is described as follows: IL-6 level in LPS-stimulated rat peritoneal macrophages (ELISA). Type of assay: cell-based. Particulars: pretreatment 1 h, LPS 1 μg/ml 24 h. Here is the method:
as §1, §4

The results in this text go back to patent publication US20190070170A1, “METHOD OF S[…]-1” (Macau University of Science and Technology, priority 2017, published 2019).

Structures are written as SMILES.

In the case of `COC1=C[C@@H]2[C@@H]3Cc4ccc(OC)c(O)c4[C@]2(CCN3C)CC1=O` [SIN, sinomenine], the mPGES-1 protein expression entry in the assay with mPGES-1 was “significantly and dose-dependently inhibited”. Also, the p-cPLA2 protein expression result in the assay with p-cPLA2 is recorded as “did not suppress”. Also, the COX-1 protein expression result in the assay on COX-1 is “did not suppress”. Besides, the “level of PGD2” value in the assay on PGD2 is given as “no significant influence”. The “nuclear translocation of p65” value in the assay on p65 was “does not produce observable inhibitory effects”. In addition, the “NO production (nitrite)” value in the assay on NO [1] and in the assay with NO [2] was “significantly inhibited” in each case. In the assay on IL-6, the IL-6 production entry is reported as “significantly inhibited”.
